Test results from patent US6812247B2, “Organometallic complex” (Academia Sinica, priority 2001, dated 2004).

Experiments:
[1] = test system: 160-bp dsDNA fragment from the 501-660 fragment of pBR322 DNA; experiment: Site-specific DNA cleavage of 5'-32P-labeled fragment, polyacrylamide gel against Maxam-Gilbert markers; format: biochemical; settings: complex 20-100 μM, 350-nm UV
Description: A 160-bp dsDNA fragment was prepared from the 501-660 fragment of pBR322 DNA. It was amplified by the polymerase chain reaction (Bailly & Waring (1995) J. Am. Chem. Soc. 117:7311; Bailly et al. (1993) J. Am. Chem. Soc. 115:3784; and Sayers & Waring (1993) Biochemistry 32:9094), and labeled at the 5′-terminus with γ-[^32P]-ATP and T4 polynucleotide kinase. A reaction mixture containing a 5′-terminus labeled ^32P-DNA solution, a phosphate buffer (0.10 M, pH 6.0), and complex 1 (20-100 μM) in a Pyrex vial was preincubated at 37° C. for 30 min. The reaction mixture was irradiated with 350-nm UV light under aerobic conditions for 2.0 h at room temperature. The bound metal complexes on DNA fragments were removed by using 0.30 N NaCN (pH=11) at 37° C. for 8.0 h (Schwartz et al. (1990) J. Am. Chem. Soc. 112:3673; and Zou et al. (1994) Biochemistry 33:5404). The reaction mixture was then quenched with either a gel-loading buffer or 95% ethanol. […] The samples and the Maxam-Gilbert markers were analyzed using 10% polyacrylamide/8.0 M urea gel. […] Quantitation of relative intensities of DNA fragments was performed using a Microtek scanner and NIH 1.60 image program.
The detected DNA fragments were compared with Maxam-Gilbert markers on an autoradiogram, and quantitated by a computer-assisted program.

[2] = test system: supercoiled circular φX174 RFI DNA; experiment: Single-strand DNA cleavage at various pH's, 350 nm UV, agarose gel; format: biochemical; settings: complex 5.0 μM
Description: Cleavage at Various pH's: A reaction mixture (10 μL) containing supercoiled circular φX174 RFI DNA stock solution (50 μM/base pair), complex 1 (5.0 μM), and a phosphate buffer (0.10 M, pH 5.0, 6.0, 7.0, and 8.0) in a Pyrex vial was preincubated at 37° C. The reaction mixture was then irradiated with 350 nm UV light (32-W) for 2.0 h at room temperature. After adding a gel-loading buffer (0.25% bomophenol blue, 0.25% xylene cyanol, and 30% glycerol), the reaction mixture was loaded on a 1% agarose gel, followed by ethidium bromide staining. The gel was visualized by a 312-nm UV transilluminator and photographed by a FB-PDC-34 camera. Supercoiled circular DNA and cleaved DNA were clearly seen from the gel.

[3] = test system: supercoiled circular φX174 RFI DNA; experiment: Single-strand DNA cleavage at various complex concentrations, 350 nm UV, agarose gel; format: biochemical; settings: for % form I (supercoiled circular DNA) / % form II (cleaved DNA) / (% form II)/(% form I): pH 6.0
Description: The mixture was irradiated with 350 nm UV light (32-W) for 2.0 h at room temperature. After adding a gel-loading buffer (0.25% bromophenol blue, 0.25% xylene cyanol, and 30% glycerol), the reaction mixture was loaded on a 1% agarose gel, followed by ethidium bromide staining. The gel was visualized by a 312-nm UV transilluminator and photographed by a FB-PDC-34 camera. Supercoiled circular DNA (form I) and cleaved DNA (form II) were clearly seen from the gel.

2′-deoxyguanosine = experiment: Binding and cleaving mechanism with 2'-deoxyguanosine, LC-mass
Description: As a comparison, a reaction involving 2′-deoxyguanosine and complex 1 was carried out. […] As a result, cleavage at a guanine site required assistance from an external base (e.g., piperidine). In another experiment, an excess of complex 1 was added to a 2′-deoxyguanosine solution, followed by piperidine treatment. An intermediate was detected, at a yield of 42%, with a signal at 1063.9 for (M+H^+) as analyzed by an electron spray ionization detector in LC-mass chromatogram. The intermediate was able to give a cyclization product, at a yield of 80%, with a signal at 792.0 for (M+H^+) upon 350-nm UV light irradiation, but not in the dark. The scheme below depicts the just-described reaction: [drawing 6]

[4] = test system: double helical oligonucleotide d(ATAT)2; experiment: DNA binding and cleaving mechanism with oligonucleotide, LC-mass; settings: 1:1, pH 6.0, in the dark 2.0 h
Description: A double helical oligonucleotide d(ATAT)2 was prepared and added to a phosphate buffer solution (pH=6.0) containing complex 1 (1:1). The solution was kept in the dark for 2.0 h. An intermediate was detected, at a yield of 57%, with a signal at 650.1 for (M+H^+) as analyzed by an electron spray ionization detector in LC-mass chromatogram. Then, the solution was irradiated with 350 nm-UV light for 2.0 h at room temperature. A product was detected with a signal at 456.1 for (M+H^+). […] Then an intramolecular cyclization took place to remove the DMSO and to form a covalent bond between the N-7 nitrogen atom and the platinum in complex 1, resulting in the oligonucleotide cleavage.

[5] = complex 1.0 μM, 350 nm UV 2.0 h
[6] = complex 2.5 μM, 350 nm UV 2.0 h
[7] = complex 5.0 μM, 350 nm UV 2.0 h

C[S+](C)(=O)[Pt]1([Cl])[O][n+]2ccccc2[S]1 (centres unmarked) [complex 1, PtCl(DMSO)[η^2—C5H4SN(O)]]
site of DNA cleavage ([1]; with hot piperidine treatment): cleaved DNA at purine residues | site of DNA cleavage ([1]; without piperidine treatment): at adenine residues | DNA forms seen on gel ([2]; pH 5.0, 6.0, or 7.0, 350 nm UV 2.0 h): only cleaved DNA was observed | DNA forms seen on gel ([2]; pH 8.0, 350 nm UV 2.0 h): both supercoiled circular DNA and cleaved DNA were observed | % form I (supercoiled circular DNA) [3, 5]: 37% | % form II (cleaved DNA) [3, 5]: 63% | (% form II)/(% form I) [3, 5]: 1.7 | % form I (supercoiled circular DNA) [3, 6]: 20% | % form II (cleaved DNA) [3, 6]: 80% | (% form II)/(% form I) [3, 6]: 4.0 | % form I (supercoiled circular DNA) [3, 7]: 7.1% | % form II (cleaved DNA) [3, 7]: 93% | (% form II)/(% form I) [3, 7]: 13 | % form I (supercoiled circular DNA) ([3]; complex 500 μM, in the dark): 93% | % form II (cleaved DNA) ([3]; complex 500 μM, in the dark): 7.0% | (% form II)/(% form I) ([3]; complex 500 μM, in the dark): 0.070 | DNA cleaving activity ([3]; concentration as low as 1.0 μM): very strong DNA cleaving activity | cleavage of single-strand DNA ([3]; in the dark): did not occur | binding site on nucleic acid (2′-deoxyguanosine): bound to the C-2 amino on a guanine | yield of cyclization product from intermediate (2′-deoxyguanosine; 350-nm UV light irradiation, not in the dark): 80% | yield of complex-bound intermediate (2′-deoxyguanosine; excess of complex 1, piperidine treatment): 42% | binding site on nucleic acid [4]: bound to the C-6 amino on an adenine | yield of complex-bound intermediate [4]: 57%
